Experimental data: US8466134B1, “Aqueous compositions containing corticosteroids for nasal and pulmonary delivery” (Athena Neurosciences, Inc., priority 1998, dated 2013)

Test: Storage stability of budesonide formulations, % recovery (Examples 6 and 8)
Assay type: physicochemical
Conditions: pH between about 3 and about 8, more preferably about 3.5 to about 6
Description: After dilution all samples were sterilized by filtering them through a 0.2 μm Millipore sterile filters and placed in sterile low density polyethylene plastic vials. These formulations were kept in humidity and temperature controlled chambers at 5° C. 25° C./60% RH and 40° C./75% RH (where RH is the relative humidity). The % recovery after 13.5 weeks from time zero is presented for each formulation and storage condition, in the following table: […]
The formulations described in Examples 6 and 7 were also prepared using lower buffer concentrations of 10 mM, 5 mM, and 1 mM with similar stability results.

Structure (SMILES): CCCC1O[C@@H]2C[C@H]3[C@@H]4CCC5=CC(=O)C=C[C@]5(C)[C@H]4[C@@H](O)C[C@]3(C)[C@]2(C(=O)CO)O1 (stereo partly shown) [Budesonide, budesonide]
- stability of aqueous compositions at lower pH ranges: superior stability
